The structures appear in SMILES notation.

The test deals with T1, human TGR5 (Homo sapiens, UniProt Q8TDU6).
T1 construct: expressed in transfected cells; host or cells: HEK293
T1 sequence (Q8TDU6 1-330): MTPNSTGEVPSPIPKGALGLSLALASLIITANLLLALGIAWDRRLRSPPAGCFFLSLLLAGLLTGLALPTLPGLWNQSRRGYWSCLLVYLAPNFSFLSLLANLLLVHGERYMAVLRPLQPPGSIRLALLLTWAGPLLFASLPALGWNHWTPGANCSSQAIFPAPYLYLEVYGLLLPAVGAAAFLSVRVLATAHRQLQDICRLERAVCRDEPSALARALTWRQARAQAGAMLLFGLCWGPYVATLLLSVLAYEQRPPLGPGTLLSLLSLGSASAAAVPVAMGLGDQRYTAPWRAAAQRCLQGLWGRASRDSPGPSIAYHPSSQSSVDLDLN
In words: Cell-based TGR5 assay (cAMP generation, HTRF). Conditions: HEK293 cells stably transfected with human TGR5; cAMP by HTRF; 30 minutes at 37° C.; read-out: pEC50 Human TGR5 (converted). In short, it runs like this: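 First, compounds in 3-fold serial dilution were placed in HBSS with 10 mM HEPES pH 7.4 and 0.5 mM IBMX. Next, human TGR5-expressing HEK293 cells were added and incubated 30 min at 37° C. Finally, cAMP was detected by HTRF and pEC50 derived by logistic fitting.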
Background: Time-resolved FRET reads energy transfer from a long-lived donor to a nearby acceptor.
Regarding `O=C([C@@H](O)[C@@H](O)[C@H](O)[C@@H](O)CO)N(CCCSc1ccc(Cl)c(CNC2(c3cnccc3-c3ccccc3OC3CC3)CC2)c1)C1CCOCC1` [Compound I-528, (2S,3S,4R,5S)-N-[3-({4-chloro-3-[({1-[4-(2-cyclopropoxyphenyl)pyridin-3-yl]cyclopropyl}amino)methyl]phenyl}sulfanyl)propyl]-2,3,4,5,6-pentahydroxy-N-(oxan-4-yl)hexanamide], the EC50 was 126 to 1000 nM.
For `O=C1CCCN1CCCN(CCCSc1ccc(Cl)c(CNC2(c3cnccc3-c3ccccc3OC3CC3)CC2)c1)C(=O)[C@@H](O)[C@@H](O)[C@H](O)[C@@H](O)CO` [Compound I-529, (2S,3S,4R,5S)-N-[3-({4-chloro-3-[({1-[4-(2-cyclopropoxyphenyl)pyridin-3-yl]cyclopropyl}amino)methyl]phenyl}sulfanyl)propyl]-2,3,4,5,6-pentahydroxy-N-[3-(2-oxopyrrolidin-1-yl)propyl]hexanamide] the value was 126 to 1000 nM; for `O=C([C@@H](O)[C@@H](O)[C@H](O)[C@@H](O)CO)N(CCCSc1ccc(Cl)c(CNC2(c3cnccc3-c3ccccc3OC3CC3)CC2)c1)CCN1CCS(=O)(=O)CC1` [Compound I-530, (2S,3S,4R,5S)-N-[3-({4-chloro-3-[({1-[4-(2-cyclopropoxyphenyl)pyridin-3-yl]cyclopropyl)amino)methyl]phenyl}sulfanyl)propyl]-N-[2-(1,1-dioxo-1λ^6,4-thiomorpholin-4-yl)ethyl]-2,3,4,5,6-pentahydroxyhexanamide], 126 to 1000 nM; for `O=C1NCCN1CCN(CCCSc1ccc(Cl)c(CNC2(c3cnccc3-c3ccccc3OC3CC3)CC2)c1)C(=O)[C@@H](O)[C@@H](O)[C@H](O)[C@@H](O)CO` [Compound I-531, (2S,3S,4R,5S)-N-[3-({4-chloro-3-[({1-[4-(2-cyclopropoxyphenyl)pyridin-3-yl]cyclopropyl}amino)methyl]phenyl}sulfanyl)propyl]-2,3,4,5,6-pentahydroxy-N-[2-(2-oxoimidazolidin-1-yl)ethyl]hexanamide], 126 to 1000 nM.
For `CS(=O)(=O)CCCN(CCCCSc1ccc(Cl)c(CNC2(c3cnccc3-c3ccccc3OC3CC3)CC2)c1)C(=O)[C@@H](O)[C@@H](O)[C@H](O)[C@@H](O)CO` [Compound I-532, (2S,3S,4R,5S)-N-[4-({4-chloro-3-[({1-[4-(2-cyclopropoxyphenyl)pyridin-3-yl]cyclopropyl}amino)methyl]phenyl}sulfanyl)butyl]-2,3,4,5,6-pentahydroxy-N-(3-methanesulfonylpropyl) hexanamide] the value was below 100 nM.
As to `O=C([C@@H](O)[C@@H](O)[C@H](O)[C@@H](O)CO)N(CCCCSc1ccc(Cl)c(CNC2(c3cnccc3-c3ccccc3OC3CC3)CC2)c1)CCOCCO` [Compound I-533, (2S,3S,4R,5S)-N-[4-({4-chloro-3-[({1-[4-(2-cyclopropoxyphenyl)pyridin-3-yl]cyclopropyl}amino)methyl]phenyl}sulfanyl)butyl]-2,3,4,5,6-pentahydroxy-N-[2-(2-hydroxyethoxy)ethyl]hexanamide], the EC50 was below 100 nM.
With `O=C([C@@H](O)[C@@H](O)[C@H](O)[C@@H](O)CO)N(CCCCO)CCCCSc1ccc(Cl)c(CNC2(c3cnccc3-c3ccccc3OC3CC3)CC2)c1` [Compound I-534, (2S,3S,4R,5S)-N-[4-({4-chloro-3-[({1-[4-(2-cyclopropoxyphenyl)pyridin-3-yl]cyclopropyl}amino)methyl]phenyl}sulfanyl)butyl]-2,3,4,5,6-pentahydroxy-N-(4-hydroxybutyl)hexanamide], the EC50 was below 100 nM.
For `O=C([C@@H](O)[C@@H](O)[C@H](O)[C@@H](O)CO)N(CCCCSc1ccc(Cl)c(CNC2(c3cnccc3-c3ccccc3OC3CC3)CC2)c1)C1CCOCC1` [Compound I-535, (2S,3S,4R,5S)-N-[4-({4-chloro-3-[({1-[4-(2-cyclopropoxyphenyl)pyridin-3-yl]cyclopropyl}amino)methyl]phenyl}sulfanyl)butyl]-2,3,4,5,6-pentahydroxy-N-(oxan-4-yl)hexanamide], the EC50 was 126 to 1000 nM.
Take `O=C([C@@H](O)[C@@H](O)[C@H](O)[C@@H](O)CO)N(CCCCSc1ccc(Cl)c(CNC2(c3cnccc3-c3ccccc3OC3CC3)CC2)c1)CC1CCOCC1` [Compound I-536, (2S,3S,4R,5S)-N-[4-({4-chloro-3-[({1-[4-(2-cyclopropoxyphenyl)pyridin-3-yl]cyclopropyl}amino)methyl]phenyl}sulfanyl)butyl]-2,3,4,5,6-pentahydroxy-N-(oxan-4-ylmethyl)hexanamide]: the EC50 was 126 to 1000 nM.
Turning to `Cc1ccc(SCCCN(CCCS(C)(=O)=O)C(=O)[C@@H](O)[C@@H](O)[C@H](O)[C@@H](O)CO)cc1COC1(c2cnccc2-c2ccccc2OC2CC2)CC1` [Compound I-537, (2S,3S,4R,5S)-N-(3-{[3-({1-[4-(2-cyclopropoxyphenyl)pyridin-3-yl]cyclopropoxy}methyl)-4-methylphenyl]sulfanyl}propyl)-2,3,4,5,6-pentahydroxy-N-(3-methanesulfonylpropyl) hexanamide], the EC50 was 126 to 1000 nM.
For `Cc1ccc(SCCCN(CCOCCO)C(=O)[C@@H](O)[C@@H](O)[C@H](O)[C@@H](O)CO)cc1COC1(c2cnccc2-c2ccccc2OC2CC2)CC1` [Compound I-538, (2S,3S,4R,5S)-N-(3-{[3-({1-[4-(2-cyclopropoxyphenyl)pyridin-3-yl]cyclopropoxy}methyl)-4-methylphenyl]sulfanyl}propyl)-2,3,4,5,6-pentahydroxy-N-[2-(2-hydroxyethoxy)ethyl]hexanamide] the value was 1260 to 10000 nM; for `Cc1ccc(SCCCN(CCCCO)C(=O)[C@@H](O)[C@@H](O)[C@H](O)[C@@H](O)CO)cc1COC1(c2cnccc2-c2ccccc2OC2CC2)CC1` [Compound I-539, (2S,3S,4R,5S)-N-(3-{[3-({1-[4-(2-cyclopropoxyphenyl)pyridin-3-yl]cyclopropoxy}methyl)-4-methylphenyl]sulfanyl}propyl)-2,3,4,5,6-pentahydroxy-N-(4-hydroxybutyl)hexanamide], 126 to 1000 nM; for `Cc1ccc(SCCCN(C(=O)[C@@H](O)[C@@H](O)[C@H](O)[C@@H](O)CO)C2CCOCC2)cc1COC1(c2cnccc2-c2ccccc2OC2CC2)CC1` [Compound I-540, (2S,3S,4R,5S)-N-(3-{[3-({1-[4-(2-cyclopropoxyphenyl)pyridin-3-yl]cyclopropoxy}methyl)-4-methylphenyl]sulfanyl}propyl)-2,3,4,5,6-pentahydroxy-N-(oxan-4-yl)hexanamide], 126 to 1000 nM.
`Cc1ccc(SCCCCN(CCCCO)C(=O)[C@@H](O)[C@@H](O)[C@H](O)[C@@H](O)CO)cc1COC1(c2cnccc2-c2ccccc2OC2CC2)CC1` [Compound I-541, (2S,3S,4R,5S)-N-(4-{[3-({1-[4-(2-cyclopropoxyphenyl)pyridin-3-yl]cyclopropoxy}methyl)-4-methylphenyl]sulfanyl}butyl)-2,3,4,5,6-pentahydroxy-N-(4-hydroxybutyl)hexanamide]: the EC50 was 126 to 1000 nM.
Turning to `CN(CCSc1ccc(Cl)c(CNC2(c3cnccc3-c3ccccc3OC3CC3)CC2)c1)C(=O)[C@@H](O)[C@@H](O)[C@H](O)[C@@H](O)CO` [Compound I-542, (2S,3S,4R,5S)-N-[2-({4-chloro-3-[({1-[4-(2-cyclopropoxyphenyl)pyridin-3-yl]cyclopropyl}amino)methyl]phenyl}sulfanyl)ethyl]-2,3,4,5,6-pentahydroxy-N-methylhexanamide], the EC50 was below 100 nM.
`O=C1NCCN1CCN(CCCSc1ccc(Cl)c(COC2(c3cnccc3-c3ccccc3OC3CC3)CC2)c1)C(=O)[C@@H](O)[C@@H](O)[C@H](O)[C@@H](O)CO` [Compound I-543, (2S,3S,4R,5S)-N-(3-{[4-chloro-3-({1-[4-(2-cyclopropoxyphenyl)pyridin-3-yl]cyclopropoxy}methyl)phenyl]sulfanyl}propyl)-2,3,4,5,6-pentahydroxy-N-[2-(2-oxoimidazolidin-1-yl)ethyl]hexanamide]: the EC50 is 126 to 1000 nM.
On to `Cc1ccc(SCCCN(CCCS(C)(=O)=O)C(=O)[C@@H](O)[C@@H](O)[C@H](O)[C@@H](O)CO)cc1CNC1(c2cnccc2-c2ccccc2OC2CC2)CC1` [Compound I-544, (2S,3S,4R,5S)-N-[3-({3-[({1-[4-(2-cyclopropoxyphenyl)pyridin-3-yl]cyclopropyl}amino)methyl]-4-methylphenyl}sulfanyl)propyl]-2,3,4,5,6-pentahydroxy-N-(3-methanesulfonylpropyl) hexanamide], for which the EC50 was 126 to 1000 nM.
Consider `Cc1ccc(SCCCN(CCOCCO)C(=O)[C@@H](O)[C@@H](O)[C@H](O)[C@@H](O)CO)cc1CNC1(c2cnccc2-c2ccccc2OC2CC2)CC1` [Compound I-545, (2S,3S,4R,5S)-N-[3-({3-[({1-[4-(2-cyclopropoxyphenyl)pyridin-3-yl]cyclopropyl}amino)methyl]-4-methylphenyl}sulfanyl)propyl]-2,3,4,5,6-pentahydroxy-N-[2-(2-hydroxyethoxy)ethyl]hexanamide], for which the EC50 is 126 to 1000 nM.
Consider `Cc1ccc(SCCCN(CCCCO)C(=O)[C@@H](O)[C@@H](O)[C@H](O)[C@@H](O)CO)cc1CNC1(c2cnccc2-c2ccccc2OC2CC2)CC1` [Compound I-546, (2S,3S,4R,5S)-N-[3-({3-[({1-[4-(2-cyclopropoxyphenyl)pyridin-3-yl]cyclopropyl}amino)methyl]-4-methylphenyl}sulfanyl)propyl]-2,3,4,5,6-pentahydroxy-N-(4-hydroxybutyl) hexanamide], for which the EC50 is 126 to 1000 nM.

The values above are taken from US12084472B2 (Ardelyx, Inc., priority 2015, dated 2024).
